Reference: US20230149448A1, “METHODS FOR PREVENTING AND TREATING R[…] MODIFICATION OF VIRUS RECEPTOR BINDING DOMAINS USING […]” (priority 2021, published 2023)

Columns and labels:
SARS-CoV-2 [1] = assay type: cell-based
SARS-CoV-2 [2] = assay type: cell-based; remark: listed apart in the source
human subjects = experiment: Safety of microaerosolized HOCl inhalation in human volunteers; assay type: in vivo; settings: dense microaerosols for 2-5 minutes, 400 episodes
Protocol: The safety of exposure of human subjects to microaerosolized pure stable HOCl of the present disclosure via the respiratory route was evaluated.
Human volunteers were exposed to dense microaerosols of HOCl for periods of 2-5 minutes and submitted subjective reports of the outcomes of these experiences. Data on a total of 400 such episodes were collected under medical supervision.

[3] = target: receptor binding domain (RBD) of Spike S protein (Severe acute respiratory syndrome coronavirus 2, UniProt P0DTC2); experiment: Exposure of Spike protein, capture/detection by RBD-specific antibodies (96 well, HRP); set-up: species or system SARS-CoV-2; settings: 150 ppm, 5 minutes exposure

| Compound | average reductions in infectivity (SARS-CoV-2 [1]) [%] | average reduction in titer (SARS-CoV-2 [2]) [%] | serious adverse effects (human subjects) | minor complaints (nose irritation, slight impact on ease of deep breathing) (human subjects; disappeared upon cessation of exposure) | inhibition of chromophore formation (S protein remaining bound by RBD specific antibodies) [3] | average reductions in infectivity (positive control) (SARS-CoV-2 [1]) [%] |
| --- | --- | --- | --- | --- | --- | --- |
| OCl [HOCl, hypochlorous acid] | 99.92 | 99.96 | No serious adverse effects | approximately 3% | complete inhibition | – |
| CCO [45% ethanol, ethanol, reference compound] | – | – | – | – | – | 99.98 |
| OBr [HOBr, hypobromous acid] | – | – | – | – | complete inhibition | – |
